Source: US12421216B2, “Voruciclib polymorphs and methods of making and using thereof” (MEI PHARMA, INC., priority 2019, dated 2025)
Structures can show the parent of a compound that is named as a salt. Where two headings read alike, the source gives them in different places. Values belong to the compound of their own block, whether it stands above or below them.

Legend:
[1] = acid counterion; cited from earlier work
[2] = Thermodynamic solubility of voruciclib HCl by the shake-flask method (HPLC); assay type: physicochemical; conditions: RT; for Solubility classification: USP29
[3] = Solubility of salts in water and in 0.2 M phosphate buffer pH 6 at 37° C. after 4 hours (HPLC-DAD); assay type: physicochemical; conditions: 37° C., 4 hours, listed as Voruciclib HCl salt
Procedure: Two sets of solubility experiments were performed. […] In the second set of solubility experiments about 5 mg of the salt was weighed in a standard 1.8 mL HPLC vial. Subsequently, aliquots of 200 μL of aqueous medium were added up to a maximum of 1 mL, while making observations regarding the dissolution behavior of the salts. The vials were left to equilibrate at 37° C. with continuous stirring (see Table 25 for details). After 4 hours the solids were separated from the liquid by centrifugation and the liquid phase was further filtrated through a […] PTFE filter to remove any particulate matter. The concentration of solute was determined by HPLC-DAD analysis. A calibration curve was made from two independent stock solutions of voruciclib prepared in acetonitrile/water. The pH was recorded at the end of the equilibration time.

Compound: O=C(O)C[C@H](O)C(=O)O [(−)-L-Malic]
- pka1 [1]: 3.5
- pka2 [1]: 5.1

Compound: O=C(O)[C@H](O)[C@@H](O)[C@H](O)[C@H](O)CO [D-Gluconic]
- pka1 [1]: 3.8

Compound: O=C(O[C@@H](C(=O)O)[C@@H](OC(=O)c1ccccc1)C(=O)O)c1ccccc1 [Dibenzoyl-L-tartaric]
- pka1 [1]: 1.9

Compound: O=S(=O)(O)CCS(=O)(=O)O [Ethane-1,2-disulfonic]
- pka1 [1]: −2.1
- pka2 [1]: −1.5

Compound: CCS(=O)(=O)O [Ethanesulfonic]
- pka1 [1]: 2.1

Compound: O=C(O)CCCC(=O)O [Glutaric]
- pka1 [1]: 4.3
- pka2 [1]: 5.3

Compound: O=S(=O)(O)c1cccc2c(S(=O)(=O)O)cccc12 [Naphthalene-1,5-disulfonic]
- pka1 [1]: −3.4
- pka2 [1]: −2.6

Compound: O=S(=O)(O)c1ccc2ccccc2c1 [Naphthalene-2-sulfonic]
- pka1 [1]: 0.2

- solubility at 24 h ([2]; 1,2-dimethoxyethane, organic solvent or mixture, thermodynamic from solid, 1,2-Dimethoxyethane, 24 h, amorphous API, HPLC, read-out: Solubility): 1600 µg/mL
- solubility at 24 h ([2]; 1,4-dioxane, organic solvent or mixture, thermodynamic from solid, 1,4-Dioxane, 24 h, amorphous API, HPLC, read-out: Solubility): 400 µg/mL
- solubility ([2]; 1-Propanol, 24 h, amorphous API, HPLC): 34500 µg/mL
- solubility at 24 h ([2]; 1-propanol, organic solvent or mixture, thermodynamic from solid, 1-Propanol, 24 h, amorphous API, HPLC, read-out: Solubility): 34000 µg/mL
- solubility ([2]; 2-Butanol, 24 h, amorphous API, HPLC): 10200 µg/mL
- solubility ([2]; 2-Propanol, 24 h, amorphous API, HPLC): 18800 µg/mL
- solubility at 24 h ([2]; 2-butanol, organic solvent or mixture, thermodynamic from solid, 2-Butanol, 24 h, amorphous API, HPLC, read-out: Solubility): 10000 µg/mL
- solubility at 24 h ([2]; 2-methyltetrahydrofuran, organic solvent or mixture, thermodynamic from solid, 2-Methyltetrahydrofuran, 24 h, amorphous API, HPLC, read-out: Solubility): 1600 µg/mL
- solubility at 24 h ([2]; 2-propanol, organic solvent or mixture, thermodynamic from solid, 2-Propanol, 24 h, amorphous API, HPLC, read-out: Solubility): 19000 µg/mL
- solubility ([2]; Dimethyl sulfoxide, amorphous API, no suspension obtained, concentration of the solution after first aliquot): >400000 µg/mL
- solubility ([2]; Ethanol, 24 h, amorphous API, HPLC): 62000 µg/mL
- solubility ([2]; Methanol, 24 h, amorphous API, HPLC): 229500 µg/mL
- solubility ([2]; N,N-Dimethylacetamide, amorphous API, no suspension obtained, concentration of the solution after first aliquot): >400000 µg/mL
- solubility ([2]; N,N-Dimethylformamide, amorphous API, no suspension obtained, concentration of the solution after first aliquot): >400000 µg/mL
- solubility ([2]; N,N-dimethylacetamide, organic solvent or mixture, thermodynamic from solid, N,N-Dimethylacetamide, amorphous API, no suspension obtained, concentration of the solution after first aliquot, read-out: Solubility): > 400000 µg/mL
- solubility ([2]; N,N-dimethylformamide, organic solvent or mixture, thermodynamic from solid, N,N-Dimethylformamide, amorphous API, no suspension obtained, concentration of the solution after first aliquot, read-out: Solubility): > 400000 µg/mL
- Solubility classification ([2]; 2-Propanol, 2-Butanol): Sparingly soluble
- Solubility classification ([2]; Acetonitrile, Ethyl acetate, Methyl isobutyl ketone, Dichloromethane, Isopropyl acetate, 1,4-Dioxane, Diethyl ether, tert-Butyl methyl ether, Toluene): Very slightly soluble
- Solubility classification ([2]; Anisole, p-Xylene, Diisopropyl ether, Cumene, Cyclohexane, n-Hexane, n-Heptane, Hexanes): Practically insoluble
- Solubility classification ([2]; Ethanol, 1-Propanol): Soluble
- Solubility classification ([2]; N,N-Dimethylacetamide, Dimethyl sulfoxide, N,N-Dimethylformamide, Methanol): Freely soluble
- Solubility classification ([2]; Tetrahydrofuran, Acetone, Chloroform, 1,2-Dimethoxyethane, 2-Methyltetrahydrofuran, Ethyl formate, Methyl ethyl ketone): Slightly soluble
- solubility at 24 h ([2]; acetone, organic solvent or mixture, thermodynamic from solid, Acetone, 24 h, amorphous API, HPLC, read-out: Solubility): 3500 µg/mL
- solubility at 24 h ([2]; acetonitrile, organic solvent or mixture, thermodynamic from solid, Acetonitrile, 24 h, amorphous API, HPLC, read-out: Solubility): 900 µg/mL
- solubility at 24 h ([2]; anisole, organic solvent or mixture, thermodynamic from solid, Anisole, 24 h, amorphous API, HPLC, read-out: Solubility): < 100 µg/mL
- solubility at 24 h ([2]; chloroform, organic solvent or mixture, thermodynamic from solid, Chloroform, 24 h, amorphous API, HPLC, read-out: Solubility): 3100 µg/mL
- solubility at 24 h ([2]; cumene, organic solvent or mixture, thermodynamic from solid, Cumene, 24 h, amorphous API, HPLC, read-out: Solubility): < 100 µg/mL
- solubility at 24 h ([2]; cyclohexane, organic solvent or mixture, thermodynamic from solid, Cyclohexane, 24 h, amorphous API, HPLC, read-out: Solubility): < 100 µg/mL
- solubility at 24 h ([2]; dichloromethane, organic solvent or mixture, thermodynamic from solid, Dichloromethane, 24 h, amorphous API, HPLC, read-out: Solubility): 500 µg/mL
- solubility at 24 h ([2]; diethyl ether, organic solvent or mixture, thermodynamic from solid, Diethyl ether, 24 h, amorphous API, HPLC, read-out: Solubility): 200 µg/mL
- solubility at 24 h ([2]; diisopropyl ether, organic solvent or mixture, thermodynamic from solid, Diisopropyl ether, 24 h, amorphous API, HPLC, read-out: Solubility): < 100 µg/mL
- solubility ([2]; dimethyl sulfoxide, organic solvent or mixture, thermodynamic from solid, Dimethyl sulfoxide, amorphous API, no suspension obtained, concentration of the solution after first aliquot, read-out: Solubility): > 400000 µg/mL
- solubility at 24 h ([2]; ethanol, organic solvent or mixture, thermodynamic from solid, Ethanol, 24 h, amorphous API, HPLC, read-out: Solubility): 62000 µg/mL
- solubility at 24 h ([2]; ethyl acetate, organic solvent or mixture, thermodynamic from solid, Ethyl acetate, 24 h, amorphous API, HPLC, read-out: Solubility): 800 µg/mL
- solubility at 24 h ([2]; ethyl formate, organic solvent or mixture, thermodynamic from solid, Ethyl formate, 24 h, amorphous API, HPLC, read-out: Solubility): 1600 µg/mL
- solubility at 24 h ([2]; hexanes, organic solvent or mixture, thermodynamic from solid, Hexanes, 24 h, amorphous API, HPLC, read-out: Solubility): < 100 µg/mL
- solubility at 24 h ([2]; isopropyl acetate, organic solvent or mixture, thermodynamic from solid, Isopropyl acetate, 24 h, amorphous API, HPLC, read-out: Solubility): 500 µg/mL
- solubility at 24 h ([2]; methanol, organic solvent or mixture, thermodynamic from solid, Methanol, 24 h, amorphous API, HPLC, read-out: Solubility): 230000 µg/mL
- solubility at 24 h ([2]; methyl ethyl ketone, organic solvent or mixture, thermodynamic from solid, Methyl ethyl ketone, 24 h, amorphous API, HPLC, read-out: Solubility): 1100 µg/mL
- solubility at 24 h ([2]; methyl isobutyl ketone, organic solvent or mixture, thermodynamic from solid, Methyl isobutyl ketone, 24 h, amorphous API, HPLC, read-out: Solubility): 700 µg/mL
- solubility at 24 h ([2]; n-heptane, organic solvent or mixture, thermodynamic from solid, n-Heptane, 24 h, amorphous API, HPLC, read-out: Solubility): < 100 µg/mL
- solubility at 24 h ([2]; n-hexane, organic solvent or mixture, thermodynamic from solid, n-Hexane, 24 h, amorphous API, HPLC, read-out: Solubility): < 100 µg/mL
- solubility at 24 h ([2]; p-xylene, organic solvent or mixture, thermodynamic from solid, p-Xylene, 24 h, amorphous API, HPLC, read-out: Solubility): < 100 µg/mL
- solubility at 24 h ([2]; solvents other than DMA, DMF, DMSO and alcohols, organic solvent or mixture, thermodynamic from solid, solvents other than DMA, DMF, DMSO and alcohols, read-out: Solubility in all the other solvents): < 10000 µg/mL
- solubility at 24 h ([2]; tert-butyl methyl ether, organic solvent or mixture, thermodynamic from solid, tert-Butyl methyl ether, 24 h, amorphous API, HPLC, read-out: Solubility): 100 µg/mL
- solubility at 24 h ([2]; tetrahydrofuran, organic solvent or mixture, thermodynamic from solid, Tetrahydrofuran, 24 h, amorphous API, HPLC, read-out: Solubility): 9600 µg/mL
- solubility at 24 h ([2]; toluene, organic solvent or mixture, thermodynamic from solid, Toluene, 24 h, amorphous API, HPLC, read-out: Solubility): 100 µg/mL
- Solubility pH 6 ([3]; 0.2M phosphate buffer (pH 6)): 0.01 mg/mL
- Solubility water ([3]; water): Gel
Compound: CN1CC[C@@H](c2c(O)cc(O)c3c(=O)cc(-c4ccc(C(F)(F)F)cc4Cl)oc23)[C@@H]1CO [voruciclib HCl]
